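Test compounds were applied to cells in 96-well plates for 48 hours at 5 doses. Abbreviation: GI50, concentration required for 50% inhibition of growth.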 Activity calls are given as the source filed them. No stated cut-off is given here; in the data, active = GI50 up to about 1.1 µM and inactive = higher.
How the values were obtained:
Assay in all cases: NCI anticancer screen, dose series, 48 h
A498 = system: A498
COLO 205 = system: COLO 205
EKVX = system: EKVX
HCT-15 = system: HCT-15
HOP-62 = system: HOP-62
K562 = system: K562
M14 = system: M14
MDA-MB-231 = system: MDA-MB-231
MDA-MB-435 = system: MDA-MB-435
NCI-H23 = system: NCI-H23
NCI-H460 = system: NCI-H460
OVCAR-3 = system: OVCAR-3
SK-OV-3 = system: SK-OV-3
SNB-19 = system: SNB-19
SW-620 = system: SW-620
T47D = system: T47D
TK-10 = system: TK-10
U-251 = system: U-251
UACC-62 = system: UACC-62
PC-3 = system: PC-3

SMILES	GI50 (A498)	GI50 (COLO 205)	GI50 (EKVX)	GI50 (HCT-15)	GI50 (HOP-62)	GI50 (K562)	GI50 (M14)	GI50 (MDA-MB-231)	GI50 (MDA-MB-435)	GI50 (NCI-H23)	GI50 (NCI-H460)	GI50 (OVCAR-3)	GI50 (SK-OV-3)	GI50 (SNB-19)	GI50 (SW-620)	GI50 (T47D)	GI50 (TK-10)	GI50 (U-251)	GI50 (UACC-62)	GI50 (PC-3)
Cc1cc(=O)c2cc(/N=C/c3ccc([N+](=O)[O-])o3)ccc2o1	> 100 µM (inactive)	> 100 µM (inactive)	> 100 µM (inactive)	88.3 µM	> 100 µM (inactive)	33.7 µM (inactive)	> 100 µM (inactive)	> 100 µM (inactive)	44.9 µM (inactive)	> 100 µM (inactive)	> 100 µM (inactive)	> 100 µM (inactive)	> 100 µM (inactive)	> 100 µM (inactive)	63.5 µM (inactive)	> 100 µM (inactive)	> 100 µM (inactive)	> 100 µM (inactive)	56.1 µM (inactive)	–
COc1ccc(C2=NN=C3C(c4ccccc4)=Nc4ccccc4N3C2)cc1	40.1 µM (inactive)	15.3 µM (inactive)	> 100 µM (inactive)	16.9 µM	14.8 µM (inactive)	30.8 µM (inactive)	15.5 µM (inactive)	27.5 µM (inactive)	27.2 µM (inactive)	21 µM (inactive)	22.1 µM (inactive)	3.06 µM (inactive)	80.2 µM (inactive)	23.8 µM (inactive)	14.9 µM (inactive)	–	23.5 µM (inactive)	14.5 µM (inactive)	29.2 µM (inactive)	31.6 µM (inactive)
CCCCCCCCCCC(O)[C@H]1CCC(C2CC[C@H]([C@H](O)CCCCCCCCCCC(O)CC3=CC(C)OC3=O)O2)O1 (some centres not stated)	2.17 µM (inactive)	1.48 µM (inactive)	1.23 µM (inactive)	2.01 µM	1.97 µM (inactive)	1.8 µM (inactive)	1.69 µM (inactive)	1.61 µM (inactive)	–	0.0493 µM (active)	1.04 µM (active)	1.71 µM (inactive)	3.18 µM (inactive)	1.82 µM (inactive)	1.87 µM (inactive)	2.23 µM (inactive)	1.59 µM (inactive)	3.03 µM (inactive)	1.45 µM (inactive)	1.7 µM (inactive)
CCOC(=O)CC(=O)C(=O)NN=C1NCCN1	–	> 100 µM (inactive)	> 100 µM (inactive)	> 100 µM	> 100 µM (inactive)	> 100 µM (inactive)	> 100 µM (inactive)	> 100 µM (inactive)	> 100 µM (inactive)	> 100 µM (inactive)	> 100 µM (inactive)	> 100 µM (inactive)	> 100 µM (inactive)	> 100 µM (inactive)	> 100 µM (inactive)	> 100 µM (inactive)	> 100 µM (inactive)	> 100 µM (inactive)	> 100 µM (inactive)	> 100 µM (inactive)
CN(N)C(=O)NCCCl	> 100 µM (inactive)	> 100 µM (inactive)	> 100 µM (inactive)	> 100 µM	> 100 µM (inactive)	> 100 µM (inactive)	> 100 µM (inactive)	1.3 µM (inactive)	> 100 µM (inactive)	> 100 µM (inactive)	> 100 µM (inactive)	> 100 µM (inactive)	> 100 µM (inactive)	> 100 µM (inactive)	> 100 µM (inactive)	–	> 100 µM (inactive)	> 100 µM (inactive)	> 100 µM (inactive)	> 100 µM (inactive)
CCOC(=O)c1cn2c(n1)sc1cc(OC)ccc12	46.3 µM (inactive)	3.4 µM (inactive)	> 53.3 µM (inactive)	3.89 µM	13 µM (inactive)	3.75 µM (inactive)	5.28 µM (inactive)	37.3 µM (inactive)	1.18 µM (inactive)	> 47.5 µM (inactive)	29.8 µM (inactive)	3.85 µM (inactive)	30.1 µM (inactive)	9.82 µM (inactive)	3.08 µM (inactive)	–	> 100 µM (inactive)	2.81 µM (inactive)	8.63 µM (inactive)	15.2 µM (inactive)
CN1CCN(C(=S)N(C(=O)c2ccco2)c2ccccc2)CC1	–	> 100 µM (inactive)	–	> 100 µM	–	> 100 µM (inactive)	> 100 µM (inactive)	> 100 µM (inactive)	> 100 µM (inactive)	> 100 µM (inactive)	> 100 µM (inactive)	> 100 µM (inactive)	–	> 100 µM (inactive)	> 100 µM (inactive)	> 100 µM (inactive)	> 100 µM (inactive)	> 100 µM (inactive)	> 100 µM (inactive)	–
O=C(c1cccnc1)N1N=C(c2ccccc2)CC1(O)c1cc(F)c(Cl)cc1Cl (configuration not stated)	–	14.1 µM (inactive)	21.8 µM (inactive)	26.2 µM	16.1 µM (inactive)	21.4 µM (inactive)	22 µM (inactive)	15.7 µM (inactive)	26.9 µM (inactive)	27 µM (inactive)	18.6 µM (inactive)	7.31 µM (inactive)	23.7 µM (inactive)	40 µM (inactive)	28.3 µM (inactive)	12.3 µM (inactive)	41 µM (inactive)	16.4 µM (inactive)	–	20.5 µM (inactive)
CC12CCC(CC1(Cl)Cl)C2 (configuration not stated)	–	> 100 µM (inactive)	> 100 µM (inactive)	> 100 µM	> 100 µM (inactive)	> 100 µM (inactive)	> 100 µM (inactive)	–	> 100 µM (inactive)	> 100 µM (inactive)	> 100 µM (inactive)	> 100 µM (inactive)	> 100 µM (inactive)	> 100 µM (inactive)	> 100 µM (inactive)	> 100 µM (inactive)	> 100 µM (inactive)	> 100 µM (inactive)	> 100 µM (inactive)	> 100 µM (inactive)
CC(Cn1c2c(c3cc(O)ccc31)CCc1ccc(O)cc1-2)N(C)C (configuration not stated)	26.3 µM (inactive)	–	19.8 µM (inactive)	13.9 µM	15.6 µM (inactive)	34.5 µM (inactive)	14.1 µM (inactive)	26 µM (inactive)	17.9 µM (inactive)	19.6 µM (inactive)	15.1 µM (inactive)	15.6 µM (inactive)	25.2 µM (inactive)	17.8 µM (inactive)	20.3 µM (inactive)	–	18.7 µM (inactive)	28.2 µM (inactive)	15.8 µM (inactive)	12.4 µM (inactive)
O=c1c2cc(S(=O)(=O)O)ccc2nc(COc2ccc(Oc3ccc(Cl)cc3Cl)cc2)n1C(=S)Nc1ccc(Cl)cc1	22.5 µM (inactive)	18 µM (inactive)	21.8 µM (inactive)	21 µM	20.5 µM (inactive)	1.06 µM (active)	20.2 µM (inactive)	–	18.6 µM (inactive)	18.7 µM (inactive)	17.9 µM (inactive)	21.5 µM (inactive)	21.3 µM (inactive)	33.4 µM (inactive)	20.9 µM (inactive)	34.6 µM (inactive)	18.3 µM (inactive)	17.2 µM (inactive)	15.8 µM (inactive)	34.1 µM (inactive)

Reference: ChEMBL document CHEMBL1201862, “PubChem BioAssay data set” (2004)
